Patent US11110098B2, “Methods and medicaments for the treatment of renal cell carcinoma” (University of Kansas, priority 2017, dated 2021)

Columns and labels:
[1] = type: in vivo; details: OPC31260 30 and 60 mg/Kg, daily intraperitoneal, 28 days
Procedure: (§1) Female Athymic Nude-Foxn1^nu mice (Nu/Nu mice), 7-8 weeks old and weighing ˜25 g were procured from Envigo/Harlan. All animal studies were carried out according to the protocols approved by the University of Kansas Medical Center Institutional Animal Care and Use Committee. Mice were subcutaneously injected on the right flank region with 1×10^6 Caki-1 cells in 100 μl of DMEM medium. One week after injection, palpable tumors appeared and tumor volume was measured with calipers following the formula, […]. Once the tumor volume reached ˜80-100 mm^3, mice were randomized into sub-groups based on the tumor volume. Animals were administered vehicle, OPC31260 (30 mg/Kg BWt.), OPC31260 (60 mg/Kg BWt) or dDAVP (1 μg/Kg BWt.) and vehicle (saline) by daily intraperitoneal injection, or tolvaptan (120 mg/Kg BWt. in 1% aqueous solution of hydroxypropyl methylcellulose-dose derived from previous study^31) or vehicle by daily oral gavage for 28 days. Body weights and tumor volumes were measured every alternate day. At the end of the study, mice were injected with BRDU (100 mg/Kg BWt. by IP) 90 minutes before sacrifice. Tumors were harvested, photographed and weighed. Tumors were flash frozen or paraffin embedded for further analysis.

[2] = test system: Caki-1 cells; assay: Immunostaining of xenograft tumor sections (Ki-67, BRDU, CD31); type: in vivo, Nu/Nu mice; details: OPC31260 IP, tolvaptan 120 mg/Kg oral, dDAVP 1 μg/Kg IP, daily 28 days
Procedure: as §1
Tumor tissues were fixed overnight in 4% paraformaldehyde, dehydrated in a graded alcohol series, and embedded in paraffin for histological analysis as previously described^26. Slides with 5 μm tissue sections were heated in a steamer for 20 min in citrate buffer (pH 6.0) to unmask antigens. Slides were further blocked with 10% goat serum (Invitrogen) and then incubated overnight with primary antibody (V2R, CD31, BRDU, Ki67 and p-H3). After washing the slides with PBST, slides were incubated with appropriate fluorescence-labeled secondary antibody (Invitrogen) and streptavidin HRP conjugated (Invitrogen) secondary antibody for immunoflurorescence and immunohistochemistry, respectively. Slides were also incubated in 4′,6-diamidino-2-phenylindole to visualize nuclei. For immunofluorescence staining, slides were mounted with Fluoromount G (Southern Biotech). For immunohistochemistry, slides were developed with DAB (Vector Laboratories) and counterstained with Harris haematoxylin, dehydrated, and mounted with Permount (Fisher Scientific, Waltham, Mass.). All images were captured using a Nikon 80i microscope (Tokyo, Japan) at the KUMC Imaging Center.

[3] = test system: Caki-1 cells; assay: TUNEL assay for apoptosis in xenograft tumor sections; type: in vivo, Nu/Nu mice; details: OPC31260 IP, tolvaptan 120 mg/Kg oral, dDAVP 1 μg/Kg IP, daily 28 days
Procedure: as §1
TUNEL assays were performed to check apoptosis using the in situ Cell Death Detection Kit (Roche Applied Science, Indianapolis, Ind.). Briefly, slides with 5-μm tumor sections were treated to a TUNEL reaction mixture containing terminal deoxynucleotidyl transferase and nucleotides, including tetramethylrhodamine-labeled dUTP. Both Dapi stained and TUNEL-positive nuclei were counted as described for proliferating cell nuclear antigen. All images were captured using a Nikon 80i microscope (Tokyo, Japan) in the KUMC Imaging Center.

[4] = test system: 786-O cells; assay: Clonogenic assay, 786-O cells; type: cell-based, human; details: 48 h treatment, 10 days growth
Procedure: (§2) 786-O and Caki-1 cells were plated at very low density (1,000 cells/well) in six-well plates. After 16 h, cells were treated with different doses of OPC31260 and incubated for 48 h. Cells were washed and grown for 10 days until visible colonies formed. Colonies were fixed with 4% paraformaldehyde in PBS, stained with 0.25% crystal violet in 25% methanol, washed, air-dried and photographed. Crystal violet was dissolved in sodium citrate buffer (0.1M, 50% ethanol, pH 4.2) and absorbance was recorded at 590 nm.

[5] = test system: Caki-1 cells; assay: Clonogenic assay, Caki-1 cells; type: cell-based, human; details: 48 h treatment, 10 days growth
Procedure: as §2

[6] = test system: 786-O cells; assay: MTT cell viability, 786-O cells; type: cell-based; details: Homo sapiens, 786-0, 48 h, read-out: dose at which cell viability declined by 50%
Procedure: MTT assays were performed to measure cell viability. Briefly, exponentially growing 786-O and Caki-1 cells were seeded in 96 well plates. After 24 h, cells were incubated with different doses of OPC31260 for 48 h. The cells were then incubated in MTT solution (5 mg/mL) for 2 h, following which the MTT solution was removed and the intracellular purple formazan was solubilized in DMSO and quantified by spectrophotometry at […].

[7] = test system: 786-O cells; assay: Annexin V-FITC/PI apoptosis/necrosis, 786-O cells; type: cell-based, human; details: 24 h
Procedure: Annexin V-FITC/PI staining was performed for quantification of apoptosis and necrotic cell death using FITC AnnexinV apoptosis detection kit I. Green FITC dye stains apoptotic cells whereas propidium iodide stains necrotic cells with red fluorescence. RCC cells were incubated with OPC31260 for 24 h and washed in cold PBS and resuspended in calcium containing binding buffer (10 mM HEPES, 140 mM NaCl, 5 mM CaCl2; pH 7.4) at a concentration of 1×10^6 cells/ml and stained for 15 min, with 5 μl Annexin V-FITC and 5 μl PI at 1 μg/ml (Cell signaling kit, USA). 10,000 cells were analyzed at an excitation wavelength of 488 nm and emission wavelengths of 530 nm for FITC fluorescence and 610 nm for PI fluorescence. The percentages of viable (Annexin V−PI−), early apoptotic (Annexin V+PI−), late apoptotic/necrotic (Annexin V+PI+) and necrotic cells (Annexin V-PI+) were evaluated with the CellQuestPro® software (Becton, Dickinson, Heidelberg, Germany).

[8] = test system: CCRCC; assay: Immunocompetent animal model of spontaneous CCRCC; type: in vivo, Vh1Δ/ΔTrp53Δ/ΔRb1Δ/Δ mice; details: treatment from 30 weeks after start of tamoxifen till 56 weeks
Source text: The Vh1^Δ/ΔTrp53^Δ/ΔRb1^Δ/Δ mice (Harlander S et al, Nat Med 2017 23(7):869-877) can spontaneously develop CCRCC. Gene deletion of Vhl and tumor suppressors p53 and Rb 1 will be achieved using a Ksp1.3-CreERT2, tamoxifen-inducible system. For the studies, 6-week old Vh1^Δ/ΔTrp53^Δ/ΔRb1^Δ/ΔKsp1.3-CreERT2 mice will be treated with vehicle (saline) or tamoxifen for 14 days used to obtain wildtype control mice and Vh1^Δ/ΔTrp53^Δ/ΔRb1^Δ/Δ mice with RCC stumors. Starting 30 weeks after start of tamoxifen, the wildtype and Vh1^Δ/ΔTrp53^Δ/ΔRb1^Δ/Δ mice will be treated with vehicle, dDAVP, OPC31260, or tolvaptan till 56 weeks. The effect of V2R activation or inhibition will be monitored by MRI as well as by gross and pathological analysis and of kidneys at sacrifice.

Compound: Cc1ccccc1C(=O)Nc1ccc(C(=O)N2CCCC(N(C)C)c3ccccc32)cc1 (centres unmarked) [OPC31260, 5-(dimethylamino)-1-[4-(2-methylbenzamido)benzoyl]-2,3,4,5-tetrahydro-1H-benzazepine]
- body weight of the mice [1]: did not significantly change
- urine osmolality [1]: reduced urine osmolality in a dose dependent manner
- BRDU staining / incorporation of tumors compared to vehicle [2]: significantly reduced
- Ki-67 staining of tumors compared to vehicle [2]: significantly reduced
- tumor micro-vessel density (CD31 staining) [2]: significantly reduced
- TUNEL staining of tumors compared to vehicle [3]: increased
- dose from which a significant decline in colony formation was observed [4]: 5 µM
- dose from which a significant decline in colony formation was observed [5]: 10 µM
- IC50 [6]: 5 to 10 µM
- apoptosis [7]: increase in apoptosis
- expected tumor burden / tumor growth [8]: significantly suppress tumor growth
